PMC3323469, “Comparative study of ^64Cu/NOTA-[D-Tyr^6,βAla^11,Thi^13,Nle^14]BBN(6-14) monomer and dimers for prostate cancer PET imaging” (EJNMMI Research, 2012)
Numbered stars: 1 amine (or outer) side, 2 acyl side, 3 side chain; on linkers, the order of the positions; unused ones are H or OH. Bridge positions count the residues as written; N and C are the ends. Square brackets hold non-standard residues; d marks the D form. Peptide text beside a SMILES is read from it. I, II: the chains in the order shown. * marks the point of attachment. NOTA = O=C(O)CN1CCN(CC(=O)O)CCN(CC(=O)*)CC1; X1 = O=C(CCC(=O)[*:2])NCCOCCOCC(=O)[*:1]; 2Thi = N[C@@H](Cc1cccs1)C(=O)O; Nle = CCCC[C@H](N)C(=O)O; AEEA = NCCOCCOCC(=O)O; βAla = NCCC(=O)O

How the values were obtained:
[1] = Solubility in physiological media; format: physicochemical; conditions: 64Cu-labeled peptide; DMF-PBS (10/90 v/v) used to solubilize
Experimental: Our cyclotron facility provides ^64Cu isotope on a routine basis for research purposes using a target system developed in collaboration with Advanced Cyclotron Systems Inc. (ACSI, Richmond, British Columbia, Canada). ^64Cu was prepared on an EBCO TR-19 cyclotron (EBCO Technologies, Vancouver, Canada) by the ^64Ni(p, n)^64Cu nuclear reaction using an enriched ^64Ni target electroplated on a rhodium disk. [^64Cu]CuCl2 was recovered from the target following the procedure of McCarthy et al. and converted to [^64Cu]copper[II] acetate by dissolving the [^64Cu]CuCl2 in ammonium acetate (0.1 M; pH 5.5). Peptides were labeled with ^64Cu following conditions optimized in our laboratory. Briefly, peptides (5 μg) were dissolved in a 0.1 M ammonium acetate buffer at pH 5.5 with [^64Cu]Cu(OAc)2 (8 to 10 mCi, 296 to 370 MBq) in a total volume of 250 to 300 μL, and then, the resulting solution was incubated at 100°C for 10 min. The labeled product was purified by HPLC using a C-18 column and a radio-detector. The amount of radiolabeled peptide was determined by the peak area of the tracer in the UV-chromatogram compared to the UV peak area of the standard unlabelled peptide (Figure 3). […] The peptide fraction was collected, evaporated and counted in a Capintec radioisotope calibrator (Capintec, Inc., NJ, USA) to calculate the specific activity of the product.

[2] = molecular target: GRPR (Homo sapiens, UniProt P30550); assay: Competitive binding assay with [125I-Tyr4]bombesin on PC3 cells; set-up: host or cells: PC3 cells (whole, adherent cells in 24-well plates); conditions: read-out: Ki (affinity for GRPR)
GRPR (Homo sapiens, UniProt P30550), sequence (P30550 whole entry): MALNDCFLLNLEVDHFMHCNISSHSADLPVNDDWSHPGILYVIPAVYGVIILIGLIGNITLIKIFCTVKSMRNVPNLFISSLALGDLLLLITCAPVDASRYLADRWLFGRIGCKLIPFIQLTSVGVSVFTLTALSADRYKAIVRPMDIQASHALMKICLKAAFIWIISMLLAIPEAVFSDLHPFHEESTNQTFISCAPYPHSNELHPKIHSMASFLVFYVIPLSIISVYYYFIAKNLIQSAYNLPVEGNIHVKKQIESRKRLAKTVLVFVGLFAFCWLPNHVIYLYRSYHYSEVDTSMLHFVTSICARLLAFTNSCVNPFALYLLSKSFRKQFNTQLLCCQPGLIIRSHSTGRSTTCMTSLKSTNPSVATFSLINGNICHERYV
Experimental: Competition assays were performed in 24-well plates using PC3 cells. The cells were cultured until near confluence, and the medium was replaced by 400 μL of reaction medium (RPMI complemented with 2 mg/mL BSA, 4.8 mg/mL HEPES, 1 U/mL penicillin G and 1 μg/mL streptomycin). For the assay, equal volumes of radioactive and non-radioactive ligands were added. […] The plates were incubated for 40 min at 37°C with agitation. After the incubation, the reaction medium was removed, and the cells were washed three times with PBS at room temperature. The cells were harvested and counted in a gamma counter (Cobra II auto-gamma counter, Packard, MN, USA). Experiments were realized three times in triplicate. Data were analyzed with GraphPad Prism 5 Software (GraphPad Software, San Diego, CA, USA) to determine the IC50. Finally, the Ki was determined using Cheng and Pursoff's formula [32].

[3] = molecular target: T1, GRPR (Mus musculus, UniProt P21729); assay: Biodistribution in Balb/c mice (in vivo GRPR-targeting efficacy); conditions: 64Cu-labeled peptide, 30 min p.i.; for Pancreas uptake: female Balb/c mice
T1 construct: using the pancreas, a GRPR-rich tissue, as a target for specific receptor-mediated accumulation; from tissue; host or cells: Female Balb/c mice, in vivo; organs (pancreas and others) collected 30 min p.i
T1 sequence (P21729 whole entry): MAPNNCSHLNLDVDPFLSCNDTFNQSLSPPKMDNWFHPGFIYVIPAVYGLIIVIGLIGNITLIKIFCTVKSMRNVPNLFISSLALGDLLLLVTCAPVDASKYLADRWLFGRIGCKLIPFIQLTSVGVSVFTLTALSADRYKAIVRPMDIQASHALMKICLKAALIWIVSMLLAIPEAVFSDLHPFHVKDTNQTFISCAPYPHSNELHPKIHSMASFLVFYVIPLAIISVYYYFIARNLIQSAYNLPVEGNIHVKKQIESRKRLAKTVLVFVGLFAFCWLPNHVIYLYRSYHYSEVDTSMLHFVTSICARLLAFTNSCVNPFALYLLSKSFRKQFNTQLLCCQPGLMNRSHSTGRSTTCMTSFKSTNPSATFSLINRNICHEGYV
Experimental: To determine the in vivo GRPR-targeting efficacy of labeled peptides, biodistribution of female Balb/c mice were realized with a minimum of 4 mice for each condition. Briefly, mice were injected with 370 to 740 kBq (10 to 20 μCi; 100 μL) of either ^64Cu/NOTA-monomer, ^64Cu/NOTA-dimer 1 or ^64Cu/NOTA-dimer 2 via the caudal vein. The animals were sacrificed with CO2 at 30 min post-injection [p.i.]. Organs of interest were then collected, weighed and measured in a gamma counter. The results were expressed as percentage of the injected dose per gram of tissue [%ID/g].

| Structure (SMILES) | Solubility in physiological media [1] | Ki [2] | Fold higher pancreas uptake than NOTA-monomer and NOTA-dimer 1 ([3]; Balb/c mice) | Pancreas uptake [3] |
| --- | --- | --- | --- | --- |
| CCCC[C@H](NC(=O)[C@H](Cc1cccs1)NC(=O)[C@H](Cc1c[nH]cn1)NC(=O)CCNC(=O)[C@@H](NC(=O)[C@H](C)NC(=O)[C@H](Cc1c[nH]c2ccccc12)NC(=O)[C@H](CCC(N)=O)NC(=O)[C@@H](Cc1ccc(O)cc1)NC(=O)CCC(=O)NCCOCCOCC(=O)N[C@@H](CCCCNC(=O)CN1CCN(CC(=O)O)CCN(CC(=O)O)CC1)C(=O)NCCOCCOCC(=O)NCC(=O)N[C@H](Cc1ccc(O)cc1)C(=O)N[C@@H](CCC(N)=O)C(=O)N[C@@H](Cc1c[nH]c2ccccc12)C(=O)N[C@@H](C)C(=O)N[C@H](C(=O)NCCC(=O)N[C@@H](Cc1c[nH]cn1)C(=O)N[C@@H](Cc1cccs1)C(=O)N[C@@H](CCCC)C(N)=O)C(C)C)C(C)C)C(N)=O [NOTA-dimer 2, BBN(6-14)-Suc-PEG-Lys(NOTA)-PEG-Gly-BBN(6-14)] (I: K(NOTA)[AEEA]G[dY]QWAV[βAla]H[2Thi][Nle]-NH2 / II: [dY]QWAV[βAla]H[2Thi][Nle]-NH2; linker I:N-II:N via X1) | poorly soluble | 1.76 ± 1.3 nM | 3.6 fold | 57 ± 16 %ID/g |
| CCCC[C@H](NC(=O)[C@H](Cc1cccs1)NC(=O)[C@H](Cc1c[nH]cn1)NC(=O)CCNC(=O)[C@@H](NC(=O)[C@H](C)NC(=O)[C@H](Cc1c[nH]c2ccccc12)NC(=O)[C@H](CCC(N)=O)NC(=O)[C@@H](Cc1ccc(O)cc1)NC(=O)CCC(=O)NCCOCCOCC(=O)N[C@@H](CCCCNC(=O)CN1CCN(CC(=O)O)CCN(CC(=O)O)CC1)C(=O)NCC(=O)N[C@H](Cc1ccc(O)cc1)C(=O)N[C@@H](CCC(N)=O)C(=O)N[C@@H](Cc1c[nH]c2ccccc12)C(=O)N[C@@H](C)C(=O)N[C@H](C(=O)NCCC(=O)N[C@@H](Cc1c[nH]cn1)C(=O)N[C@@H](Cc1cccs1)C(=O)N[C@@H](CCCC)C(N)=O)C(C)C)C(C)C)C(N)=O [NOTA-dimer 1, BBN(6-14)-Suc-PEG-Lys(NOTA)-Gly-BBN(6-14)] (I: K(NOTA)G[dY]QWAV[βAla]H[2Thi][Nle]-NH2 / II: [dY]QWAV[βAla]H[2Thi][Nle]-NH2; linker I:N-II:N via X1) | poorly soluble | 2 ± 1.59 nM |  | 15.6 ± 2.0 %ID/g |
